Data as given in paper PMC12469672, “Effects on Oral Squamous Carcinoma Cell Lines and Their Mechanisms of Pyrazole N-Aryl Sulfonate: A Novel Class of Selective Cyclooxygenase-2 Inhibitors” (International Journal of Molecular Sciences, 2025).
Read-outs that look alike come from different tables or passages of the source.

Columns and labels:
SAS cells [1] = experiment: Hoechst 33342 staining, SAS; type: cell-based; conditions: 24 h, working concentrations, vs NC
Protocol: (§1) After 24 h drug treatment at the predefined working concentrations, CAL-27 and SAS cells were dyed with 300 μL Hoechst 33342 staining (C1022, Beyotime, China) in the dark at 37 °C for 10 min. Then, the residual Hoechst 33342 staining was washed 3 times with 1 × phosphate-buffered saline (PBS, G4250-500ML, Servicebio, China). The images were then immediately examined under an inverted fluorescence microscope (CX23, Olympus, Japan).

MMP2 mRNA in SAS cells = experiment: RT-qPCR MMP2 mRNA, SAS; type: cell-based; conditions: vs control
Protocol: (§2) Equal amounts of RNA were reverse transcribed into cDNA using the Reverse Transcription Kit (AG11705, Accurate Biology, Guangzhou, China) following the manufacturer’s instructions. Quantitative PCR was performed on a QIAGEN Rotor-GeneQ system (9001862, QIAGEN, Hilden, Germany) with SYBR Green Pro Taq HS Premix II (AG11702, Accurate Biology, China).
(§3) The PCR protocol consisted of initial denaturation at 95 °C for 30 s, followed by 40 cycles of 95 °C for 5 s and 60 °C for 30 s. All reactions were performed in triplicate, with melting curve analysis confirming amplification specificity. The expression of the target genes was normalized to GAPDH, and fold changes were calculated in the manner of the 2^−ΔΔCT .

COX-2 mRNA in SAS cells = experiment: RT-qPCR COX-2 mRNA, SAS; type: cell-based; conditions: working concentrations, 24 h, vs control
Protocol: as §2, §3

CAL-27 cells [2] = experiment: Hoechst 33342 staining, CAL-27; type: cell-based; conditions: CAL-27, 24 h, working concentrations, vs NC
Protocol: as §1

CAL-27 cells [3] = experiment: CCK-8 proliferation assay, CAL-27; type: cell-based; conditions: Homo sapiens
Protocol: (§4) The OSCC cell lines CAL-27 (STCC12901P, Servicebio, Wuhan, China) and SAS (CC0706, Cellcook, Guangzhou, China) were cultured in Dulbecco Modified Eagle Medium F12 (DMEM/F12) (G4610-500ML, Servicebio, Wuhan, China) supplemented with 10% fetal bovine serum (FBS) (AB-FBS-DIA1050, ABW, Shanghai, China) and 100 U/mL penicillin-streptomycin-gentamicin solution (G4014-100ML, Servicebio, Wuhan, China). VERO cells were cultured in DMEM (G4524-500ML, Servicebio, Wuhan, China) supplemented with 10% FBS (AB-FBS-DIA1050, ABW, China) and 100 U/mL penicillin–streptomycin–gentamicin solution (G4014-100ML, Servicebio, Wuhan, China). […] were maintained at 37 °C in a humidified 5% CO2 incubator. For experiments, 1 × 10^6 cells were seeded per T-25 culture flask.
(§5) CAL-27, SAS, and VERO cells were seeded in 96-well plates at a density of 5000 cells per well. At specified time intervals, 10 μL of Cell Counting Kit-8 (CCK-8) reagent (K1018, Apexbio, Boston, MA, USA) was added to each well and incubated for 2 h. Absorbance at 450 nm was measured using a microplate reader (Infinite M200 Pro, Tecan Group, Männedorf, Switzerland).

VERO cells = experiment: CCK-8 cytotoxicity assay, VERO; type: cell-based, African green monkey; conditions: Chlorocebus sabaeus; VERO, CCK-8, 24 h
Protocol: as §4, §5

[4] = tested on: MMP9 mRNA in CAL-27 cells; experiment: RT-qPCR MMP9 mRNA, CAL-27; type: cell-based; conditions: CAL-27, 24 h, vs control
Protocol: as §2, §3

COX-2 in SAS cells = experiment: ELISA COX-2, SAS; type: cell-based; conditions: working concentrations, vs control (compounds also vs CXB)
Protocol: With the aim of determining COX-2 concentrations in OSCC cell lines after treatment at the predefined working concentrations, we used a specialized ELISA kit (F0564-A, FANKEW, Shanghai, China), following the manufacturer’s instructions. Briefly, 40 μL of the sample dilution and 10 μL of the sample (sample final dilution is 5-fold) were added to testing sample wells and incubated for 30 min at 37 °C. After that, discard the liquid and wash the plate using washing buffer. Repeat 5 times, drying by patting. Subsequently, samples were incubated with 50 μL of HRP-conjugate reagent in each well for 30 min at 37 °C. Wash 5 times, then add Chromogen Solution A and B and incubate for 10 min at 37 °C. Lastly, 50 μL of stop solution was added to each well to stop the reaction, and the sample absorbance was measured using a microplate reader at 450 nm after adding stop solution within 15 min.

SAS cells [5] = experiment: Annexin V-FITC/PI flow cytometry apoptosis, SAS; type: cell-based; conditions: 24 h, vs control
Protocol: (§6) After 24 h drug treatment at the predefined working concentrations, CAL-27 and SAS cells were trypsinized, centrifuged (200× g, 5 min, RT), and washed twice with 1 mL ice-cold PBS. Cell aliquots ((5–10) × 10^4 cells) were resuspended in 195 μL Annexin V-FITC binding buffer, followed by sequential addition of 5 μL Annexin V-FITC and 10 μL propidium iodide (PI) (BMS500FI-100, Thermo Fisher Scientific, Wien, Austria) with gentle mixing. After 10–20 min of incubation in darkness (20–25 °C) with intermittent resuspension (2–3 times), samples were placed on ice and analyzed within 1 h using a flow cytometer (CytExpert software [Version 2.4.0.28, Beckman Coulter, Brea, CA, USA]). Triplicate independent experiments were performed for statistical analysis.

CAL-27 cells [6] = experiment: Annexin V-FITC/PI flow cytometry apoptosis, CAL-27; type: cell-based; conditions: CAL-27, 24 h, vs control
Protocol: as §6

SAS cells [7] = experiment: CCK-8 proliferation assay, SAS; type: cell-based
Protocol: as §4, §5

[8] = tested on: MMP2 mRNA in CAL-27 cells; experiment: RT-qPCR MMP2 mRNA, CAL-27; type: cell-based; conditions: CAL-27, 24 h, vs control
Protocol: as §2, §3

## Cc1ccc(-c2cc(C(F)(F)F)nn2-c2ccc(S(N)(=O)=O)cc2)cc1 [CXB, celecoxib, reference compound]
SAS cells [1]
  apoptotic cells (Hoechst 33342, fluorescence microscopy): significant increase
MMP2 mRNA in SAS cells
  MMP2 mRNA expression: markedly suppressed
COX-2 mRNA in SAS cells
  COX-2 mRNA level: marked upregulation
CAL-27 cells [2]
  apoptotic cells (Hoechst 33342, fluorescence microscopy): significant increase
CAL-27 cells [3]; CAL-27, 24 h, read-out: IC50 (range), CAL-27, CCK-8, 24 h, given as a range
  IC50: 52.4 to 61.9 µM
CAL-27 cells [3]; CAL-27, CAL-27, CCK-8, read-out: IC50 CAL-27
  IC50: 57 µM
VERO cells
  IC50: 243 µM
[4]
  MMP9 mRNA expression: even lower
COX-2 in SAS cells
  COX-2 level (ELISA): no marked difference
SAS cells [5]
  total apoptotic cell population (early and late apoptosis): comparable pro-apoptotic efficacy
CAL-27 cells [6]
  total apoptotic cell population (early and late apoptosis): comparable pro-apoptotic efficacy
SAS cells [7]; 24 h, read-out: IC50 (range)
  IC50: 53.9 to 61.5 µM
SAS cells [7]; SAS, CCK-8, read-out: IC50 SAS
  IC50: 57.6 µM
[8]
  MMP2 mRNA expression: even lower
